According to patent publication US6620828B2, “Thiazole compounds and pharmaceutical compositions for inhibiting protein kinases and methods for their use” (Agouron Pharmaceuticals, Inc., priority 1999, dated 2003):

Assays:
[1] = molecular target: T1, phosphorylated VEGF-R2Δ50 (FLVK-P) (Homo sapiens, UniProt P35968, DEL940-989/E990V); assay: VEGF-R2 coupled spectrophotometric (FLVK-P) assay; assay type: biochemical; settings: Table 1; spectrophotometric assay
T1 construct: VEGF-R2Δ50 contains residues 806-939 and 990-1171; made in house; host or cells: baculovirus/insect cells
Method in brief: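 Baculovirus-expressed human VEGF-R2Δ50 (residues 806-939/990-1171, E990V) was autophosphorylated with 3 mM ATP, 40 mM MgCl2 for 2 h at 4° C. ADP formation was coupled via PK/LDH to NADH oxidation, read at 340 nm, with 5.1 mM poly(E4Y1), 1 mM ATP, 25 mM MgCl2, Hepes pH 7.5. Ki came from activity across compound concentrations.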

[2] = system: lung cancer cells (line MV522); assay: Cancer cell proliferation (MV522) assay; assay type: cell-based
Method: Cancer Cell Proliferation (MV522) Assay
The protocol for assessing cellular proliferation in cancer cells is similar to that used for assessments in HUVEC cells. Two thousand lung cancer cells (line MV522, acquired from American Tissue Cultural Collection) were seeded in growth media (RPMI1640 medium supplemented with 2 mM glutamine and 10% FBS). Cells are allowed to attach for 1 day prior to addition of test agents and/or vehicles. Cells are treated simultaneously with the same test agents used in the HUVEC assay. Cellular proliferation is quantified by MTT dye reduction assay 72 hours after exposure to test agents. The total length of the assay is 4 days vs. 5 for HUVEC cells because MV522 cells are not exposed to starvation medium.

[3] = system: human umbilical vein endothelial cells (HUVEC); assay: HUVEC proliferation assay; assay type: cell-based; settings: Homo sapiens, HUVEC
Method in brief: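 Readout was MTT dye reduction (A595) after 72 h of stimulation with VEGF at 6 ng/ml final. Compound, in 0.1% DMSO final, was added 1 h before VEGF to HUVEC starved 24 h in 1% FBS. % inhibition was scaled between VEGF-alone and unstimulated wells; IC50 was fitted from triplicate dose curves.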

[4] = molecular target: T2, unphosphorylated VEGF-R2Δ50 (FLVK) (Homo sapiens, UniProt P35968, DEL940-989/E990V); assay: VEGF-R2 coupled spectrophotometric assay, unphosphorylated enzyme (FLVK); assay type: biochemical; settings: Table 3; some entries 'Slow binder'
T2 construct: VEGF-R2Δ50 contains residues 806-939 and 990-1171; made in house; host or cells: baculovirus/insect cells
Method in brief: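 Unphosphorylated VEGF-R2Δ50 (5 to 40 nM) with 20 mM poly(E4Y1), 3 mM ATP, 60 mM MgCl2, 2 mM MnCl2 in 200 mM Hepes pH 7.5. ADP production coupled via PK/LDH to NADH oxidation, read at 340 nm. Ki from activity at varying compound concentrations.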

T1 sequence (P35968 with tags, fused parts or gaps DEL940-989/E990V limits assumed): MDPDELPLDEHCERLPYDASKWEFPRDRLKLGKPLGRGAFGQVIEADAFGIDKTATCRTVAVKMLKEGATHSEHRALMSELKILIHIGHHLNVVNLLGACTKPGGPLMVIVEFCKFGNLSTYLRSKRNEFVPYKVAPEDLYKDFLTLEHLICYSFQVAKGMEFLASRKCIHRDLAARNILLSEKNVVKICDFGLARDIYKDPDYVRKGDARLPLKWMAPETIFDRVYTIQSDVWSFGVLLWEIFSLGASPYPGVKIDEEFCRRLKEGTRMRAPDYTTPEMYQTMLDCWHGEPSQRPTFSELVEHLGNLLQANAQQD
T2 sequence (P35968 with tags, fused parts or gaps DEL940-989/E990V limits assumed): as above

Structure (SMILES)	Ki [1] [nM]	IC50 ([2]; MV522, Table 1) [nM]	Ki [4] [nM]	IC50 ([2]; MV522, Table 3) [nM]	IC50 ([3]; Table 1) [nM]	IC50 ([3]; Table 3) [nM]
CNc1nc(N)c(-c2nc(-c3cc(NC(=O)c4cccc(OC)c4)ccc3C)no2)s1 [B(17), N-(3-{5-[4-Amino-2-(3,4,5-methylamino)-thiazol-5-yl]-[1,2,4]oxadiazol-3-yl]-4-methyl-phenyl}-3-methoxy-benzamide]			3.4	1300		63
COc1cc(C(=O)Nc2cccc(-c3csc(-c4sc(Nc5cc(OC)c(OC)c(OC)c5)nc4N)n3)c2)ccc1C [D(32), N-{3-[4′-Amino-2′-(3,4,5-trimethoxy-phenylamino)-[2,5′]bithiazolyl-4-yl]-phenyl}-3-methoxy-4-methyl-benzamide]	3.9	> 10000			59	
COc1cc(Nc2nc(N)c(-c3nc(-c4cccc(NC(=O)c5ccc(Cl)s5)c4)cs3)s2)cc(OC)c1OC [D(35), 5-Chloro-thiophene-2-carboxylic acid {3-[4′-amino-2′-(3,4,5-trimethoxy-phenylamino)-[2,5′]bithiazolyl-4-yl]-phenyl}-amide]	1.8	> 10000			42	
COc1cc(Nc2nc(N)c(-c3nc(-c4cccc(NC(=O)c5ccc(Br)s5)c4)cs3)s2)cc(OC)c1OC [D(36), 5-Bromo-thiophene-2-carboxylic acid {3-[4′-amino-2′-(3,4,5-trimethoxy-phenylamino)-[2,5′]bithiazolyl-4-yl]-phenyl}-amide]	2	> 10000			43	
COc1cc(Nc2nc(N)c(-c3nc(-c4cccc(NC(=O)c5ccc(Br)o5)c4)cs3)s2)cc(OC)c1OC [D(37), 5-Bromo-furan-2-carboxylic acid {3-[4′-amino-2′-(3,4,5-trimethoxy-phenylamino)-[2,5′]bithiazolyl-4-yl]-phenyl}-amide]	3.4	> 10000			150	
COc1cc(Nc2nc(N)c(-c3nc(-c4cccc(NC(=O)c5cccc(C)c5)c4)cs3)s2)cc(OC)c1OC [D(38), N-{3-[4′-Amino-2′-(3,4,5-trimethoxy-phenylamino)-[2,5′]bithiazolyl-4-yl]-phenyl}-3-methyl-benzamide]	0.93	> 10000			40	
CCc1cccc(C(=O)Nc2cccc(-c3csc(-c4sc(Nc5cc(OC)c(OC)c(OC)c5)nc4N)n3)c2)c1 [D(39), N-{3-[4′-Amino-2′-(3,4,5-trimethoxy-phenylamino)-[2,5′]bithiazolyl-4-yl]-phenyl}-3-ethyl-benzamide]	1.4	> 10000			62	
COc1cccc(C(=O)Nc2cccc(-c3csc(-c4sc(Nc5cc(OC)c(OC)c(OC)c5)nc4N)n3)c2)c1 [D(41), N-{3-[4′-Amino-2′-(3,4,5-trimethoxy-phenylamino)-[2,5′]bithiazolyl-4-yl]-phenyl}-3-methoxy-benzamide]	1.9	> 10000			37	
COc1cc(Nc2nc(N)c(-c3nc(-c4cccc(NC(=O)OC(C)(C)C)c4)cs3)s2)cc(OC)c1OC [D(43), {3-[4′-Amino-2′-(3,4,5-trimethoxy-phenylamino)-[2,5′]bithiazolyl-4-yl]-phenyl}-carbamic acid tert-butyl ester]	2.9	> 10000			241	
COc1cc(Nc2nc(N)c(-c3nc(-c4cccc(NC(=O)c5ccccc5)c4)no3)s2)cc(OC)c1OC [D(46), 3-[3-Benzamidophenyl]-5-[2-[(3,4,5-trimethoxyphenyl)amino]-4-amino-5-thiazolyl]-1,2,4-oxadiazole]	17.1	> 10000			123	
COc1cccc(C(=O)Nc2cccc(-c3noc(-c4sc(Nc5cc(OC)c(OC)c(OC)c5)nc4N)n3)c2)c1 [D(48), 3-[3-(3-Methoxybenzamido)phenyl]-5-[2-[(3,4,5-trimethoxyphenyl)amino]-4-amino-5-thiazolyl]-1,2,4-oxadiazole]	4.1	> 10000			40	
COc1cc(Nc2nc(N)c(-c3nc(-c4cccc(NC(=O)c5cccc(C(F)(F)F)c5)c4)no3)s2)cc(OC)c1OC [D(49), 3-[3-(3-Trifluoromethylbenzamido)phenyl]-5-[2-[(3,4,5-trimethoxyphenyl)amino]-4-amino-5-thiazolyl]-1,2,4-oxadiazole]	1.6	> 10000			15	
COc1cc(Nc2nc(N)c(-c3nc(-c4cccc(NC(=O)c5cccc(Cl)c5)c4)no3)s2)cc(OC)c1OC [D(50), 3-[3-(3-Chlorobenzamido)phenyl]-5-[2-[(3,4,5-trimethoxyphenyl)amino]-4-amino-5-thiazolyl]-1,2,4-oxadiazole]	1.4	> 10000			17	

Further lines, with some results ahead:

Ki [1] [nM]	IC50 ([2]; MV522, Table 1) [nM]	Ki [4] [nM]	IC50 ([2]; MV522, Table 3) [nM]	Structure (SMILES)	IC50 ([3]; Table 1) [nM]	IC50 ([3]; Table 3) [nM]
7.9	> 10000			COc1ccc(Nc2nc(N)c(-c3nc(-c4cccc(NC(=O)c5ccccc5)c4)cs3)s2)cc1OC [A(47), N-{3-[4′-Amino-2′-(3,4-dimethoxy-phenylamino)-[2,5′]bithiazolyl-4-yl]-phenyl}-benzamide]	260	
16.5	3650			COc1cc(Nc2nc(N)c(-c3nc(-c4cccc(NC(=O)OC(C)(C)C)c4)no3)s2)cc(OC)c1OC [B(2), 3-(3-tert-Butyloxycarboxy-aminophenyl)-5-[2-[(3,4,5-trimethoxyphenyl)amino]-4-amino-5-thiazolyl]-1,2,4-oxadiazole]	> 700	
63	> 10000			COc1cc(Nc2nc(N)c(-c3nc(-c4cccc(NS(C)(=O)=O)c4)cs3)s2)cc(OC)c1OC [D(3), N-{3-[4′-Amino-2′-(3,4,5-trimethoxy-phenylamino)-[2,5′]bithiazolyl-4-yl]-phenyl}-methanesulfonamide]	> 700	
3.7	> 10000			Nc1nc(Nc2ccccc2)sc1-c1nc(-c2cccc(NC(=O)OCc3ccccc3)c2)cs1 [D(20), [3-(4′-Amino-2′-phenylamino-[2,5′]bithiazolyl-4-yl)-phenyl]-carbamic acid benzyl ester]	990	
150	> 10000			COc1cc(Nc2nc(N)c(-c3nc(-c4cccc(NC(=O)O[C@H](C)c5ccccc5)c4)cs3)s2)cc(OC)c1OC [D(23), {3-[4′-Amino-2′-(3,4,5-trimethoxy-phenylamino)-[2,5′]bithiazolyl-4-yl]-phenyl}-carbamic acid 1-R-phenyl-ethyl ester]	130	
1	> 10000			Nc1nc(Nc2ccc(S(N)(=O)=O)cc2)sc1-c1nc(-c2cccc(NC(=O)OCc3ccccc3)c2)cs1 [D(25), {3-[4′-Amino-2′-(4-sulfamoyl-phenylamino)-[2,5′]bithiazolyl-4-yl]-phenyl}-carbamic acid benzyl ester]	745	
1.8	> 10000			COc1cc(Nc2nc(N)c(-c3nc(-c4cccc(NC(=O)c5cccc(C(C)C)c5)c4)cs3)s2)cc(OC)c1OC [D(27), N-{3-[4′-Amino-2′-(3,4,5-trimethoxy-phenylamino)-[2,5′]bithiazolyl-4-yl]-phenyl}-3-isopropyl-benzamide]	82	
1.4	> 10000			COc1cc(Nc2nc(N)c(-c3nc(-c4cccc(NC(=O)c5cccc(Br)c5)c4)cs3)s2)cc(OC)c1OC [D(29), N-{3-[4′-Amino-2′-(3,4,5-trimethoxy-phenylamino)-[2,5′]bithiazolyl-4-yl]-phenyl}-3-bromo-benzamide]	32	
2.9	> 10000			COc1cc(Nc2nc(N)c(-c3nc(-c4cccc(NC(=O)c5ccc(Cl)c(C)c5)c4)cs3)s2)cc(OC)c1OC [D(30), N-{3-[4′-Amino-2′-(3,4,5-trimethoxy-phenylamino)-[2,5′]bithiazolyl-4-yl]-phenyl}-4-chloro-3-methyl-benzamide]	48	
0.85	9000			COc1cc(Nc2nc(N)c(-c3nc(-c4cccc(NC(=O)c5ccc(C)s5)c4)cs3)s2)cc(OC)c1OC [D(34), 5-Methyl-thiophene-2-carboxylic acid {3-[4′-amino-2′-(3,4,5-trimethoxy-phenylamino)-[2,5′]bithiazolyl-4-yl]-phenyl}-amide]	89	
	650			COc1cc(Nc2nc(N)c(-c3nc(-c4cccc(NC(C)=O)c4)no3)s2)cc(OC)c1OC [D(45), 3-[3-Acetamidophenyl]-5-[2-[(3,4,5-trimethoxyphenyl)amino]-4-amino-5-thiazolyl]-1,2,4-oxadiazole]	235	
